Patent US20220040072A1, “Reduction of Pathogenic Bacteria Using Arginine” (Colgate-Palmolive Company, priority 2018, published 2022)

Columns and labels:
[1] = tested on: beneficial bacteria; assay: Dual species competitive biofilm assay (qPCR); format: cell-based; settings: 25 micromol/ml arginine; co-cultured with one pathogenic microbe
Description: (§1) The impact of arginine in a dual-species biofilm was assessed by co-culturing one beneficial bacterial species with on pathogenic microbe in media containing 25 micromol/ml of arginine. The total beneficial-to-pathogen load in the results biofilms were determined via qPCR using DNA probes.
(§2) Using a competitive biofilm assay, the role of arginine as a selective nutrient was assessed using a dual species biofilm model (Table 2).

[2] = tested on: Porphyromonas gingivalis; assay: Dual species competitive biofilm assay (qPCR); format: cell-based; settings: 25 μmol/ml arginine, negative value = reduction of pathogen
Description: as §1, §2

[3] = tested on: Prevotella intermedia; assay: Dual species competitive biofilm assay (qPCR); format: cell-based; settings: 25 μmol/ml arginine, negative value = reduction of pathogen
Description: as §1, §2

[4] = tested on: Streptococcus sobrinus; assay: Dual species competitive biofilm assay (qPCR); format: cell-based; settings: 25 μmol/ml arginine, negative value = reduction of pathogen
Description: as §1, §2

[5] = tested on: Aggregatibacter actinomycetemcomitans; assay: Dual species competitive biofilm assay (qPCR); format: cell-based; settings: 25 μmol/ml arginine, negative value = reduction of pathogen
Description: as §1, §2

[6] = tested on: Streptococcus mutans; assay: Dual species competitive biofilm assay (qPCR); format: cell-based; settings: 25 μmol/ml arginine, negative value = reduction of pathogen
Description: as §1, §2

[7] = tested on: A. viscosus; assay: Single species growth in media supplemented with arginine (optical density 630 nm); format: cell-based, Actinomyces viscosus; settings: 10-25 micromol/ml arginine; vs reference control set to 1; OD 630 nm at 24 and 48 hours
Description: (§3) To assess the impact of the amino acid arginine on beneficial oral bacteria and on pathogenic oral bacteria, representative bacterial species were cultured in media supplemented with 5, 10, 20, and 25 micromol/ml of arginine using a 96-well polystyrene microtiter plate. The bacterial cultures were incubated under anaerobic conditions or an environment containing 5% carbon dioxide, monitoring growth at 24 and 48 hours through optical density at a wavelength of 630 nm.
(§4) *Single species growth and biofilm formation stimulated by arginine in comparison to the reference control which was set to a value of 1 (p<0.05). Cut-off values were set to a factor of 1.2 for growth (upper 5% of all data), and 1.45 for biofilm formation (upper 20% of all data). Aa: Aggregatibacter actinomycetemcomitans, Fn: Fusobacterium nucleatum, Ssob: Streptococcus sobrinus, Avisc: Actinomyces viscosus, Ssal: Streptococcus salivarius, Smitis: Streptococcus mitis, Ssang: Streptococcus sanguinis, Sgord: Streptococcus gordonii, Soralis: Streptococcus oralis.

[8] = tested on: S. sanguinis; assay: as above; format: cell-based, Streptococcus sanguinis; settings: 10-25 micromol/ml arginine; vs reference control set to 1; OD 630 nm at 24 and 48 hours
Description: as §3, §4

[9] = tested on: Fusobacterium nucieatum; assay: Dual species competitive biofilm assay (qPCR); format: cell-based, Fusobacterium nucleatum; settings: 25 μmol/ml arginine, negative value = reduction of pathogen
Description: as §1, §2

[10] = tested on: pathogenic and beneficial microbes; assay: Total biofilm growth in the presence of arginine (crystal violet staining); format: cell-based; settings: vs no substrate control, species other than A. actinomycetemcomitans
Description: as §4
(§5) Total biofilm growth in the presence of arginine was assessed through crystal violet staining. An increase of 1.2-fold or greater over the no substrate control was considered significant as calculated using a Student's t-test (p<0.05).

[11] = tested on: A. actinomycetemcomitans biofilms; assay: as above; format: cell-based, Aggregatibacter actinomycetemcomitans; settings: vs no substrate control
Description: as §4, §5

[12] = tested on: S. gordonii; assay: Single species growth in media supplemented with arginine (optical density 630 nm); format: cell-based, Streptococcus gordonii; settings: 10-25 micromol/ml arginine; vs reference control set to 1; OD 630 nm at 24 and 48 hours
Description: as §3, §4

[13] = tested on: pathogenic bacteria; assay: as above; format: cell-based; settings: 5, 10, 20, 25 micromol/ml arginine; OD 630 nm at 24 and 48 hours
Description: as §3, §4

[14] = co-cultured with Actinomyces viscosus
[15] = co-cultured with Streptoccoccus salivarius
[16] = co-cultured with Streptococcus gordonii
[17] = co-cultured with Streptococcus mitis
[18] = co-cultured with Streptococcus oralis
[19] = co-cultured with Streptococcus sanguinis

N=C(N)NCCC[C@H](N)C(=O)O [arginine]
growth of beneficial bacteria in arginine-cultured dual species biofilms [1]: increase | Proportional reduction of pathogenic species in a dual species biofilm post-Arginine treatment [2, 14]: −97.78% | Proportional reduction of pathogenic species in a dual species biofilm post-Arginine treatment [2, 15]: 90.75% | Proportional reduction of pathogenic species in a dual species biofilm post-Arginine treatment [2, 16]: −52.94% | Proportional reduction of pathogenic species in a dual species biofilm post-Arginine treatment [2, 17]: −96.62% | Proportional reduction of pathogenic species in a dual species biofilm post-Arginine treatment [2, 18]: −79.23% | Proportional reduction of pathogenic species in a dual species biofilm post-Arginine treatment [2, 19]: −85.49% | Proportional reduction of pathogenic species in a dual species biofilm post-Arginine treatment [3, 14]: −99.99% | Proportional reduction of pathogenic species in a dual species biofilm post-Arginine treatment [3, 15]: 81.56% | Proportional reduction of pathogenic species in a dual species biofilm post-Arginine treatment [3, 16]: −98.29% | Proportional reduction of pathogenic species in a dual species biofilm post-Arginine treatment [3, 17]: −52.64% | Proportional reduction of pathogenic species in a dual species biofilm post-Arginine treatment [3, 18]: −73.78% | Proportional reduction of pathogenic species in a dual species biofilm post-Arginine treatment [3, 19]: −99.35% | Proportional reduction of pathogenic species in a dual species biofilm post-Arginine treatment [4, 14]: −7.87% | Proportional reduction of pathogenic species in a dual species biofilm post-Arginine treatment [4, 15]: −1.33% | Proportional reduction of pathogenic species in a dual species biofilm post-Arginine treatment [4, 16]: −50.33% | Proportional reduction of pathogenic species in a dual species biofilm post-Arginine treatment [4, 17]: 49.29% | Proportional reduction of pathogenic species in a dual species biofilm post-Arginine treatment [4, 18]: −15.77% | Proportional reduction of pathogenic species in a dual species biofilm post-Arginine treatment [4, 19]: −40.73% | Proportional reduction of pathogenic species in a dual species biofilm post-Arginine treatment [5, 14]: −25.66% | Proportional reduction of pathogenic species in a dual species biofilm post-Arginine treatment [5, 15]: −35.38% | Proportional reduction of pathogenic species in a dual species biofilm post-Arginine treatment [5, 16]: 100.61% | Proportional reduction of pathogenic species in a dual species biofilm post-Arginine treatment [5, 17]: 73.94% | Proportional reduction of pathogenic species in a dual species biofilm post-Arginine treatment [5, 18]: 268.65% | Proportional reduction of pathogenic species in a dual species biofilm post-Arginine treatment [5, 19]: 233.40% | Proportional reduction of pathogenic species in a dual species biofilm post-Arginine treatment [6, 14]: −23.93% | Proportional reduction of pathogenic species in a dual species biofilm post-Arginine treatment [6, 15]: −15.19% | Proportional reduction of pathogenic species in a dual species biofilm post-Arginine treatment [6, 16]: −87.64% | Proportional reduction of pathogenic species in a dual species biofilm post-Arginine treatment [6, 17]: −0.72% | Proportional reduction of pathogenic species in a dual species biofilm post-Arginine treatment [6, 18]: −3.47% | Proportional reduction of pathogenic species in a dual species biofilm post-Arginine treatment [6, 19]: −19.30% | fold increase of growth [7]: 1.2-1.3 fold | fold increase of growth [8]: 1.2-1.3 fold | Proportional reduction of pathogenic species in a dual species biofilm post-Arginine treatment [9, 14]: 13.35% | Proportional reduction of pathogenic species in a dual species biofilm post-Arginine treatment [9, 15]: −28.32% | Proportional reduction of pathogenic species in a dual species biofilm post-Arginine treatment [9, 16]: 474.12% | Proportional reduction of pathogenic species in a dual species biofilm post-Arginine treatment [9, 17]: 209.31% | Proportional reduction of pathogenic species in a dual species biofilm post-Arginine treatment [9, 18]: 101.73% | Proportional reduction of pathogenic species in a dual species biofilm post-Arginine treatment [9, 19]: 112.11% | biofilm formation [10]: no significant increase | biofilm formation [11]: increase | fold increase of growth [12]: 1.2-1.3 fold | increase of pathogenic bacteria growth [13]: no significant increase
